Data on five compounds can be found in PubChem BioAssay AID2060487 (Molecular Pharmacology Branch, DTP, NCI, 2025).

The assay deals with 997537-175-T-J1-PDC complex spheroid viability. Kind of assay: Anticancer human tumor 997537-175-T-J1-PDC patient-derived colon adenocarcinoma cell line growth inhibition [GQUAD]. To be noted: for viability, T/C: stronger effect = lower value. An excerpt:
DNA G-quadruplex Stabilizer Agents in Combinations in Complex Spheroids
A high-throughput screen of multi-cell type tumor spheroids was designed to identify active combinations of DNA G-quadruplex stabilizer agents and targeted small molecules. Complex spheroids include a stromal component modeled by human endothelial cells (HUVEC) and fibroblasts modeled by human mesenchymal stem cells (MSCs). The concentration ranges selected for each drug and investigational agent were based upon clinically achievable concentrations if the clinical Cmax of the agent was known.
Compounds. The drugs and investigational agents: pidnarulex (CX-5461; NSC782164), APTO-253 (NSC789042), BRACO-19 (NSC847499), peposertib (NSC802822), ceralasertib (NSC780249), elimusertib (NSC800525), camonsertib (NSC841442), AZD-1390 (NSC803789), olaparib (NSC753686), talazoparib (NSC767125), ART-558 (NSC835418), sotorasib (NSC818433), MRTX-1133 (NSC836407), SN-38 (NSC673596), topotecan (NSC609699), etoposide (NSC141540), doxorubicin (NSC123127), gemcitabine (NSC613327), 5-fluorouracil (NSC19893), paclitaxel (NSC125973), vemurafenib (NSC761431), panobinostat (NSC761190), R-306465 (JNJ-16241199; NSC773264), adavosertib (NSC754352), TP-3654 (NSC805149), carboplatin (NSC241240), KSQ-4279 (NSC840948), and staurosporine (NSC755774) were obtained from the National Cancer Institute (NCI) Developmental Therapeutics Program Chemical Repository (34). The FDA-approved anticancer drug set is available from the NCI Developmental Therapeutics Program. […] The stock solutions were prepared in dimethyl sulfoxide (DMSO, Sigma-Aldrich, St. Louis, MO, cat. D2650) at 800-fold the tested concentration and stored at -70 degrees C prior to their use. All drugs and investigational agents were tested over a range starting from a high concentration at or near the clinical Cmax and decreasing in half-log increments. If the clinical Cmax for an agent had not been determined, the highest concentration tested was 10 microM.
2.3 Cell Culture. All cells were maintained in an incubator at 37 degrees C and 5% CO2 with 95% humidity. The PDC lines were cultured according to standard operating procedures established by the NCI PDMR. All PDCs were thawed and cultured in Matrigel-coated flasks prepared with a working solution of 1X Ham's F-12 nutrient mix, without supplementation (Invitrogen, cat. 11765054), 100 U/mL penicillin-streptomycin (Invitrogen, cat. 15140122), and 2.5% Matrigel (Corning Inc., cat. 354248) for the first three passages. The 857933-349-R-J2-PDC line was cultured in 6C/Colon 1B media, which includes advanced DMEM/F-12 (Thermo Fisher Scientific, cat. 12634028), 10 mM HEPES (Thermo Fisher Scientific, cat. 15630080), 1X GlutaMAX supplement (Thermo Fisher Scientific, cat. 35050061), 0.1 mg/mL primocin (InvivoGen, cat. ant-pm-2), 10% defined fetal bovine serum, heat inactivated (HyClone Laboratories Inc., cat. SH30070.03HI), 50% L-WRN conditioned media (ATCC, cat. CRL-3276), 1.25 mM N-Acetyl-L-cysteine (Sigma-Aldrich, cat. A9165), 10 mM nicotinamide (Sigma-Aldrich, cat. N0636), 1X B-27 supplement (Thermo Fisher Scientific, cat. 17504044), 1X N-2 supplement (Thermo Fisher Scientific, cat. 17502048), 10 microM Y-27632 dihydrochloride (Tocris Bioscience, cat. 1254), and 50 ng/mL human EGF recombinant protein (Thermo Fisher Scientific, cat. PHG0311). The 485176-168-R4-J1-PDC line was cultured in Panc media, which includes all 6C/Colon 1B media components plus 100 ng/mL human FGF-10 (Thermo Fisher Scientific, cat. 100-26), 500 nM SB-431542 (Selleckchem, cat. S1067), and gastrin (Tocris, cat. 3006).
[…]

Where [1] appears, read: curve of first compound, second compound 0.0316 µM.
[2] abbreviates: curve of first compound, second compound 0.1 µM.
Setting [3] is: curve of first compound, second compound 0.316 µM.
Where [4] appears, read: curve of first compound, second compound 1 µM.
Where [5] appears, read: curve of first compound, second compound 3.16 µM.
Setting [6] is: curve of first compound, second compound 10 µM.
[7] abbreviates: second compound 0.0316 µM, first compound 0.000999 µM.
Setting [8] is: second compound 0.0316 µM, first compound 0.00316 µM.
[9] abbreviates: second compound 0.0316 µM, first compound 0.00999 µM.
The mark [10] stands for this setting: second compound 0.0316 µM, first compound 0.0316 µM.
The mark [11] stands for this setting: second compound 0.0316 µM, first compound 0.0999 µM.
Where [12] appears, read: second compound 0.0316 µM, first compound 0.316 µM.
[13] abbreviates: second compound 0.1 µM, first compound 0.000999 µM.
Where [14] appears, read: second compound 0.1 µM, first compound 0.00316 µM.
Where [15] appears, read: second compound 0.1 µM, first compound 0.00999 µM.
The mark [16] stands for this setting: second compound 0.1 µM, first compound 0.0316 µM.
[17] abbreviates: second compound 0.1 µM, first compound 0.0999 µM.
Where [18] appears, read: second compound 0.1 µM, first compound 0.316 µM.
Where [19] appears, read: second compound 0.316 µM, first compound 0.000999 µM.
Setting [20] is: second compound 0.316 µM, first compound 0.00316 µM.
Where [21] appears, read: second compound 0.316 µM, first compound 0.00999 µM.
The mark [22] stands for this setting: second compound 0.316 µM, first compound 0.0316 µM.
The mark [23] stands for this setting: second compound 0.316 µM, first compound 0.0999 µM.
Setting [24] is: second compound 0.316 µM, first compound 0.316 µM.
The mark [25] stands for this setting: second compound 1 µM, first compound 0.000999 µM.
[26] abbreviates: second compound 1 µM, first compound 0.00316 µM.
The mark [27] stands for this setting: second compound 1 µM, first compound 0.00999 µM.
The mark [28] stands for this setting: second compound 1 µM, first compound 0.0316 µM.
Setting [29] is: second compound 1 µM, first compound 0.0999 µM.
Setting [30] is: second compound 1 µM, first compound 0.316 µM.
Setting [31] is: second compound 3.16 µM, first compound 0.000999 µM.
The mark [32] stands for this setting: second compound 3.16 µM, first compound 0.00316 µM.
[33] abbreviates: second compound 3.16 µM, first compound 0.00999 µM.
Where [34] appears, read: second compound 3.16 µM, first compound 0.0316 µM.
Where [35] appears, read: second compound 3.16 µM, first compound 0.0999 µM.
Setting [36] is: second compound 3.16 µM, first compound 0.316 µM.
Setting [37] is: second compound 10 µM, first compound 0.000999 µM.
The mark [38] stands for this setting: second compound 10 µM, first compound 0.00316 µM.
[39] abbreviates: second compound 10 µM, first compound 0.00999 µM.
The mark [40] stands for this setting: second compound 10 µM, first compound 0.0316 µM.
Where [41] appears, read: second compound 10 µM, first compound 0.0999 µM.
Where [42] appears, read: second compound 10 µM, first compound 0.316 µM.

Values joined by “and” are separate entries in the source; they are usually repeats but may differ in a detail not shown here. Equal entries are not always repeated. Bounds are passed on as bounds.
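Also: spheroids exposed to the agents for 7 days.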
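For viability, T/C in this document: 100% = DMSO vehicle control viability.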

As to `Cn1ncnc1[C@H]1c2n[nH]c(=O)c3cc(F)cc(c23)N[C@@H]1c1ccc(F)cc1` + Cc1cnc(CNC(=O)c2c(=O)c3ccc(N4CCCN(C)CC4)nc3n3c2sc2ccccc23)cn1, the IC50 is over 316 nM under setting [1]; over 316 nM under setting [2]; over 316 nM under setting [3]; over 316 nM under setting [4]; over 316 nM under setting [5]; over 316 nM under setting [6]. Further, the viability, T/C reads like this: under setting [7], 96.5%; under setting [8], 90.8%; under setting [9], 90.8%; under setting [10], 86.6%; under setting [11], 76.9%; under setting [12], 87.4%. The viability, T/C was 106% under setting [13]; 79.2% under setting [14]; 106% under setting [15]; 52.1% under setting [16]; 89.6% under setting [17]; 85% under setting [18]. The viability, T/C is 107% under setting [19]; 93.8% under setting [20]; 86.4% under setting [21]; 80.8% under setting [22]; 98.7% under setting [23]; 85.5% under setting [24]. In addition, the viability, T/C was 89.4% under setting [25]; 89.9% under setting [26]; 94.4% under setting [27]; 116% under setting [28]; 95% under setting [29]; 108% under setting [30]. The viability, T/C under setting [31] is 104%; the viability, T/C under setting [32] was 86.9%; the viability, T/C under setting [33] is 96.2%; the viability, T/C under setting [34] was 100%; the viability, T/C under setting [35] was 94.4%; the viability, T/C under setting [36] was 106%. Also, the viability, T/C under setting [37] is 87.2%; the viability, T/C under setting [38] was 98.9%; the viability, T/C under setting [39] was 97.7%; the viability, T/C under setting [40] was 103%; the viability, T/C under setting [41] was 96.4%; the viability, T/C under setting [42] is 98.3%.

Regarding `CC[C@@]1(O)C(=O)OCc2c1cc1n(c2=O)Cc2cc3c(CN(C)C)c(O)ccc3nc2-1` + Cc1cnc(CNC(=O)c2c(=O)c3ccc(N4CCCN(C)CC4)nc3n3c2sc2ccccc23)cn1, the IC50 by setting is: under setting [1], over 316 nM; under setting [2], over 316 nM; under setting [3], over 316 nM; under setting [4], over 316 nM; under setting [5], over 316 nM; under setting [6], over 316 nM. For the same compound, the viability, T/C under setting [7] is 108%; the viability, T/C under setting [8] was 104%; the viability, T/C under setting [9] was 97.8%; the viability, T/C under setting [10] is 82%; the viability, T/C under setting [11] is 72.3%; the viability, T/C under setting [12] was 80.4%. Further, the viability, T/C by setting is: under setting [13], 97.8%; under setting [14], 97.5%; under setting [15], 92.7%; under setting [16], 90.1%; under setting [17], 97.5%; under setting [18], 58%. In addition, the viability, T/C under setting [19] was 92.8%; the viability, T/C under setting [20] is 88.8%; the viability, T/C under setting [21] is 105%; the viability, T/C under setting [22] was 85%; the viability, T/C under setting [23] is 98.8%; the viability, T/C under setting [24] is 66.3%. Further, the viability, T/C is, setting by setting: under setting [25], 89.8%; under setting [26], 93.5%; under setting [27], 101%; under setting [28], 93.5%; under setting [29], 108%; under setting [30], 59%. For the same compound, the viability, T/C under setting [31] is 75%; the viability, T/C under setting [32] is 104%; the viability, T/C under setting [33] was 118%; the viability, T/C under setting [34] was 89.7%; the viability, T/C under setting [35] was 96.1%; the viability, T/C under setting [36] was 58.8%. For the same compound, the viability, T/C by setting is: under setting [37], 97.7%; under setting [38], 108%; under setting [39], 130%; under setting [40], 69%; under setting [41], 94.5%; under setting [42], 70.2%.

For `C#Cc1c(F)ccc2cc(O)cc(-c3ncc4c(N5CC6CCC(C5)N6)nc(OCC56CCCN5CC(F)C6)nc4c3F)c12` (stereo not given), the viability, T/C was 89% and 91.8% and 98.1% (compound 0.0316 µM); 89.1% and 92.2% and 103% (compound 0.1 µM); 104% and 94.8% and 102% (compound 0.316 µM); 99.4% and 67.4% and 107% (compound 1 µM); 88.9% and 38.7% and 91.8% (compound 3.16 µM); 106% and 35.1% and 92.4% (compound 10 µM). For the same compound, the IC50 (curve of compound) was > 10000 nM and 1940 nM.

Take `Cc1[nH]c2ccccc2c1CCNCc1ccc(/C=C/C(=O)NO)cc1`: the viability, T/C is 93.4% and 96.3% and 94.4% (compound 0.000999 µM); 101% and 94.2% and 106% (compound 0.00316 µM); 110% and 59.3% and 109% (compound 0.00999 µM); 105% and 87.4% and 93.1% (compound 0.0316 µM); 100% and 86.6% and 92.4% (compound 0.0999 µM); 87.6% and 50% and 52% (compound 0.316 µM). Moreover, where the note is “curve of compound”, the IC50 was > 316 nM and 316 nM.

`CC(C)(O)C1CCC(Nc2ccc3ncc(-c4cccc(C(F)(F)F)c4)n3n2)CC1` (stereo not given): the viability, T/C is, setting by setting: (compound 0.0316 µM) 106% and 96.5% and 115%; (compound 0.1 µM) 111% and 78.3% and 65.2%; (compound 0.316 µM) 114% and 96.7% and 109%; (compound 1 µM) 101% and 61.5% and 68.3%; (compound 3.16 µM) 98.6% and 24.1% and 40.3%; (compound 10 µM) 96.8% and 28.7% and 36.9%. For the same compound, the IC50 (curve of compound) is > 10000 nM and 1460 nM and 2030 nM.
